# Results: US11492366B2, “Platinum compounds for binding guanine quadruplexes” (QUEEN'S UNIVERSITY AT KINGSTON, priority 2017, dated 2022)
# How the values were obtained:
# [1] = system: 22AG; experiment: Circular dichroism titration, 22AG; type: binding, human; details: for Binder-induced conformational change of 22AG from hybrid to antiparallel (CD): K+ buffer (100 mM KCl), 0-5 equivalents binder
# Procedure: Referring to FIGS. 3A and 3B, representative CD spectra from titrations where binders are added to A) 22AG and B) c-myc in potassium buffer (10 mM lithium cacodylate buffer (pH 7.2) and 100 mM KCl) are provided. Specifically, these graphs show changes in Δ A upon addition of Pt(11)2 (0-5 equivalents). Such experiments were performed for all novel binders of Formula (1) described in Table 1 with the exception of Pt(6)2.
# The latter phenomenon is of particular interest in the case of the polymorphic quadruplex 22AG, which can adopt parallel, hybrid, and/or antiparallel topologies. […] The interactions of all novel binders of Formula (1) except Pt(6)2 (see Table 1) with 22AG and c-myc have been confirmed through similar CD titrations. In FIG. 3A, spectral changes such as the appearance of a peak at […] are consistent with a conformational change from a hybrid to an antiparallel 22AG quadruplex (Randazzo et al, Top. Curr. Chem. (2013) 330: 67-86).
# 500 μL Aliquots of 22AG and c-myc were folded at 3 μM by rapid annealing (2 min. at 90° C. followed by cooling in ice) in 10 mM lithium cacodylate (pH 7.2) and 100 mM potassium chloride. G4 binders were prepared in the same buffer at 37.5 or 75 μM, such that 0.5 equiv. binder was equivalent to 10 or 20 μL additions. Spectra at 0, 0.5, 1.0, 1.5, 2.0, 3.0, and 5.0 equivalents of binder added to G4 were acquired after 15 minutes of equilibration. Each spectrum was collected using a Jasco J-815 spectrometer with the following experimental parameters: wavelength range: 200-500 nm, data pitch: 1 nm, D.I.T.: 0.5 s, scan speed: 100 nm/min, accumulations: 3. Acquired data was then blank-corrected and baseline-corrected. Curves were smoothed by taking the average of the ellipticity data from the preceding 4 wavelengths as well as the current wavelength.
# [2] = system: FTBAT; experiment: FRET melting assay, FTBAT; type: binding; details: DNA quadruplex; 0.2 μM binder, 0.1 μM oligonucleotide, K+ buffer; dichloride salts
# Source text: (§1) All samples tested are guanine quadruplexes except FdxT, which is in duplex form. Binding of G4s by the specified binders of Formula (1) was shown.
# (§2) 96-Well plate FRET melting assays were adapted from literature protocols (A. De Rache, J.-L. Mergny, Biochimie (2015),115: 194-202) and conducted using a Strategene Mx3005P real-time PCR apparatus. G4 oligonucleotides labelled with 5′-FAM (6-carboxyfluorescein) and 3′-TAMRA (6-carboxytetramethylrhodamine) fluorophores were folded by rapid annealing in buffer (2 min. at 90° C. followed by cooling in ice). The FAM fluorescent tag was excited at 492 nm and its emission followed at 516 nm while the plates were incubated at 25° C. (5 min.) and then heated (1° C./min) to 95° C. Each condition was repeated in duplicate, and every experiment was repeated at least three times for reproducibility. Final oligonucleotide concentration ([…]) and buffer conditions (10 mM lithium cacodylate, pH 7.2 with either 10 mM potassium chloride/90 mM lithium chloride or 100 mM sodium chloride for DNA, or with 1 mM potassium chloride and 99 mM lithium chloride for RNA) were kept constant. T1/2 values were obtained as the temperature at which the normalized fluorescence emission is 0.5, with ΔT1/2=T1/2 (G4+ binder) — T1/2 (G4). […]
# [3] = system: F21T; experiment: FRET melting assay, F21T; type: binding; details: DNA quadruplex; 0.2 μM binder, 0.1 μM oligonucleotide, K+ buffer; dichloride salts
# Source text: as §1, §2
# [4] = system: FdxT; experiment: FRET melting assay, FdxT duplex; type: binding; details: DNA duplex; 0.2 μM binder, 0.1 μM oligonucleotide, K+ buffer; dichloride salts
# Source text: as §1, §2
# [5] = system: F25cebT; experiment: FRET melting assay, F25cebT; type: binding; details: DNA quadruplex; 0.2 μM binder, 0.1 μM oligonucleotide, K+ buffer; dichloride salts
# Source text: as §1, §2
# [6] = system: F21CTAT; experiment: FRET melting assay, F21CTAT; type: binding; details: DNA quadruplex; 0.2 μM binder, 0.1 μM oligonucleotide, K+ buffer; dichloride salts
# Source text: as §1, §2
# [7] = system: FBom17T; experiment: FRET melting assay, FBom17T; type: binding; details: DNA quadruplex; 0.2 μM binder, 0.1 μM oligonucleotide, K+ buffer; dichloride salts
# Source text: as §1, §2
# [8] = system: F21RT; experiment: FRET melting assay, F21RT; type: binding; details: RNA quadruplex; 0.2 μM binder, 0.1 μM oligonucleotide, K+ buffer (1 mM KCl/99 mM LiCl for RNA); dichloride salts
# Source text: as §1, §2
# [9] = system: Fc-mycT; experiment: FRET melting assay, Fc-mycT; type: binding; details: DNA quadruplex; 0.2 μM binder, 0.1 μM oligonucleotide, K+ buffer; dichloride salts
# Source text: as §1, §2
# [10] = system: guanine quadruplexes; experiment: FRET melting assays, overall statements; type: binding; details: 0.2 μM binder
# Source text: as §1, §2
# [11] = system: 22AG; experiment: FID titration (thiazole orange displacement) and data fitting; type: binding, human; details: K buffer, error 3σ × standard deviation
# Procedure: Specifically, such titrations involve the addition of a binder to a thiazole orange (TO):22AG complex (0.25 or 0.5 μM DNA) in potassium buffer (10 mM lithium cacodylate buffer (pH 7.2) and 100 mM KCl). FIG. 4A provides an example of the blank-, baseline-, and volume-corrected fluorescence spectra obtained from the titration of Pt(2)2 with TO-22AG. […] Previous experiments indicate that the fluorophore binds to the quadruplex in a 1:1 TO:22AG stoichiometry, thus potentially leaving a second binding site unoccupied on the other terminal guanine tetrad of 22AG. […]
# FID assays were adapted from literature protocols (Monchaud et al., Biochimie (2008) 90: 1207-23). […] In order to derive binding constants from FID data, fluorescence titrations monitoring the binding of TO to the quadruplex examined were first performed in triplicate. A TO-G4 binding constant was determined by data fitting using the HypSpec2014 software (see below). […]
# Experiments were performed in a 1.5 mL cell at 25° C. […] Following a 3 minute equilibrium period after each addition, the fluorescence emission spectrum was recorded (λex=501 nm, λem=510-750 nm, bandwidth 5 nm, step size 1 nm). […]
# A blank sample containing only buffer was measured in a 1.5 mL fluorescence cuvette to serve as reference. […]
Structure (SMILES),Binder-induced conformational change of 22AG from hybrid to antiparallel (CD) [1],"Average Binder-Induced Stabilization of Melting Temperature (ΔT1/2), FTBAT [2] [°C]","Average Binder-Induced Stabilization of Melting Temperature (ΔT1/2), F21T [3] [°C]","Average Binder-Induced Stabilization of Melting Temperature (ΔT1/2), FdxT [4] [°C]","Average Binder-Induced Stabilization of Melting Temperature (ΔT1/2), F25cebT [5] [°C]","Average Binder-Induced Stabilization of Melting Temperature (ΔT1/2), F21CTAT [6] [°C]","Average Binder-Induced Stabilization of Melting Temperature (ΔT1/2), FBom17T [7] [°C]","Average Binder-Induced Stabilization of Melting Temperature (ΔT1/2), F21RT [8] [°C]","Average Binder-Induced Stabilization of Melting Temperature (ΔT1/2), Fc-mycT [9] [°C]",Stabilization / binding of guanine quadruplexes (in words) [10],Preferentially bound topology of human telomeric 22AG ([1]; in potassium),"Average Log(β), 2:1 binder:G4 complex [11] [M^−2]"
CC(=O)NCC(=O)Nc1ccc2n[n+]3c(n2c1)-c1cccc[n+]1[Pt-2]31[n+]2ccccc2-c2n3cc(NC(=O)CNC(C)=O)ccc3n[n+]21 [Pt(18)2],to a lesser extent,–,–,–,–,–,–,–,–,–,–,–
CC(=O)NCC(=O)NCC(=O)Nc1ccc2n[n+]3c(n2c1)-c1cccc[n+]1[Pt-2]31[n+]2ccccc2-c2n3cc(NC(=O)CNC(=O)CNC(C)=O)ccc3n[n+]21 [Pt(19)2],to a lesser extent,–,–,–,–,–,–,–,–,–,–,–
C#Cc1ccc2[n+](c1)[Pt-2]1([n+]3cc(C#C)ccc3-c3n4ccccc4n[n+]31)[n+]1nc3ccccn3c1-2 [Pt(6)2],–,1.8,0.9,0.4,0.9,1.9,0.7,4.5,0.2,binding was minimal,–,–
CC(C)(C)OC(=O)Nc1ccc2n[n+]3c(n2c1)-c1cccc[n+]1[Pt-2]31[n+]2ccccc2-c2n3cc(NC(=O)OC(C)(C)C)ccc3n[n+]21 [Pt(17)2],no conformational changes are observed,–,–,–,–,–,–,–,–,–,preferentially bind to a hybrid topology,–
"C[n+]1cc(NC(=O)c2ccc3ccc4ccc(C(=O)Nc5cc6ccccc6[n+](C)c5)nc4c3n2)cc2ccccc21 [Phen-DC3, reference compound]",–,6.4,16.4,0.6,>8.5,11.7,3.2,13.3,11.3,–,–,16.0 ± 1.3
